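Test compounds were applied to cells in 96-well plates for 48 hours at 5 doses. Abbreviation: GI50, concentration required for 50% inhibition of growth. TGI: concentration producing complete growth inhibition.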

What all share (experiment): inhibition of tumour cell growth, NCI panel, 48 h
Experiment [1] concerns 786-0 renal.
Experiment [2] has as its system BT-549 breast.
Experiment [3] has as its system CAKI-1 renal.
For experiment [4], the system named is KM12 colon.
Experiment [5] concerns LOX IMVI melanoma.
The test system of experiment [6] is MCF7 breast.
Experiment [7] concerns OVCAR-4 ovarian.
Experiment [8] deals with SF-268 CNS.
For experiment [9], the system named is U251 CNS.
Experiment [10] relates to UO-31 renal.

As to `COC(c1ccsc1)C(C#N)(C#N)N=Cc1ccsc1` (stereo not drawn), the TGI came to 37.9 µM in experiment [1]; 38.7 µM in [2]; 19.2 µM in experiment [3]; 32.3 µM in experiment [4]; 22 µM in [5]; 15.6 µM in experiment [6]. The TGI is 88 µM in experiment [7], 33.8 µM in experiment [8], 33.5 µM in [9] and 26.2 µM in [10].
With `Cc1ccccc1N=C(N)NC#N`, the TGI in [1], in [2], in experiment [3], in [5], in [6] and in experiment [7] was more than 100 µM each time. In addition, the TGI in experiment [8], in [9] and in experiment [10] was more than 100 µM throughout.
Regarding `C(=N\Nc1ncc(-c2cc3cc4c(cc3o2)OCO4)s1)/c1c[nH]c2ccccc12`, the GI50 in [2] is 1.32 µM; in experiment [3] it was 1.18 µM; in experiment [4] it was 0.449 µM; in [5], 0.426 µM; in experiment [6], 0.566 µM; in experiment [7] it was 0.503 µM. Further, the GI50 in experiment [8] is 0.589 µM; in [10] it was 0.348 µM. The TGI in [2] was determined as 7.55 µM; in experiment [3], 3.21 µM; in [4], 2.04 µM; in [5], 1.7 µM; in experiment [6], 5.39 µM; in experiment [7] it was 4.1 µM. In addition, the figures for the TGI in experiment [8] and in experiment [10] were 2.86 µM and 1.57 µM, respectively.
In the case of `COc1c2occc2c(OC)c2c(=O)c(S(=O)(=O)NC(=O)Nc3ccc(Cl)cc3)coc12`, the TGI in [1], in experiment [2], in [3], in experiment [4], in experiment [5] and in experiment [6] was more than 10 µM in each case. Further, the TGI in experiment [7], in experiment [8], in [9] and in experiment [10] was more than 10 µM throughout.
`CCCC1NC(C#N)(C#N)C(CCC)NC1(C#N)C#N` (stereo not drawn): the TGI was more than 33.5 µM in experiment [1]; more than 27 µM in [2]; more than 50.4 µM in experiment [3]; more than 65.9 µM in [4]; 31.4 µM in experiment [5]; more than 100 µM in experiment [6]. Further, the TGI is more than 100 µM in experiment [7], more than 48.7 µM in [8], more than 100 µM in experiment [9] and more than 100 µM in experiment [10].
For the compound `O=C1C=Cc2c(Cl)sc(Cl)c21`, the TGI in experiment [1] was 2.44 µM; in experiment [2] it was 7.92 µM; in experiment [3], 4.57 µM; in experiment [5], 1.89 µM; in experiment [6], 3.9 µM; in experiment [7] it was 37.1 µM. Moreover, the values for the TGI in [8] and in experiment [9] were 3.58 µM and more than 100 µM, respectively.
On to `CC1(C)C2CCC1(CS(=O)(=O)Nc1ccccc1)C(=O)C2` (stereo not drawn), for which the TGI in experiment [1], in experiment [2], in experiment [3], in experiment [4], in experiment [5] and in experiment [6] was more than 100 µM each time. The TGI in [7], in experiment [8], in experiment [9] and in [10] was more than 100 µM each time.
`CCSSCS(C)(=O)=O`: the TGI in experiment [1] was 21.4 µM; in [2], 96.5 µM; in [3] it was more than 100 µM; in experiment [4] it was more than 100 µM; in [5] it was more than 100 µM; in experiment [6] it was 68.5 µM. Further, the TGI in experiment [7] is 40 µM; in experiment [8], more than 100 µM; in [9], more than 100 µM; in experiment [10], 24.4 µM.
For `CC(C)(C)c1cc(C(O)(C(=O)O)C(=O)O)cc(C(C)(C)C)c1O`, the TGI in [1], in experiment [2], in experiment [3], in experiment [4], in experiment [5] and in experiment [6] was more than 100 µM each time. Besides, the TGI in experiment [7], in [8], in [9] and in experiment [10] was more than 100 µM in each case.
As for `[O-][n+]1onc2c3nn(-c4ccccc4)nc3ccc21`, the TGI in [1] is more than 100 µM; in experiment [2] it was more than 100 µM; in experiment [3], more than 100 µM; in experiment [4] it was 48.5 µM; in [5], more than 58.3 µM; in experiment [6] it was more than 100 µM. Also, the TGI in experiment [7], in experiment [8], in experiment [9] and in experiment [10] was more than 100 µM in each case.
Take `CC(=O)Nc1ccc(S(=O)(=O)Nc2nnc(S(N)(=O)=O)s2)cc1`: the TGI in experiment [1], in [2], in experiment [3], in experiment [4], in experiment [5] and in experiment [6] was more than 100 µM throughout. In addition, the TGI in experiment [7], in experiment [8], in [9] and in experiment [10] was more than 100 µM in each case.
For `COc1ccc2c(c1)OCC1(O)Cc3ccccc3OC21` (stereo not drawn), the TGI in [1], in [2], in [3], in experiment [4], in experiment [5] and in experiment [6] was more than 100 µM in each case. Moreover, the TGI in experiment [7], in [8], in experiment [9] and in experiment [10] was more than 100 µM throughout.
With `CC(=O)N1N=C(c2c(O)ccc3ccccc23)CC1C(=O)c1ccco1` (stereo not drawn), the TGI in [1] was more than 100 µM; in [2] it was 45 µM; in experiment [3], more than 100 µM; in experiment [4], more than 100 µM; in [6], 47.7 µM; in experiment [7], more than 100 µM. Also, the TGI in [8], in experiment [9] and in [10] was more than 100 µM in each case.
Take `CC/C(Cl)=N\OC(=O)Nc1ccc(OC)cc1`: the TGI in experiment [1] amounted to 3.24 µM; in experiment [2] it was 3.17 µM; in experiment [3], 3.07 µM; in experiment [4], 31.6 µM; in experiment [5], 4.89 µM; in experiment [6], 12.2 µM. Besides, the TGI in experiment [7] is 30.3 µM; in [8], 32.1 µM; in experiment [9], more than 57.2 µM; in experiment [10], 20.8 µM.
For `O=C(O)Cc1ccc(Oc2nc3ccccc3nc2-c2cccs2)cc1`, the TGI in experiment [1], in experiment [2], in experiment [3], in experiment [4], in [5] and in experiment [6] was more than 100 µM each time. For the same compound, the TGI in experiment [7], in experiment [8], in [9] and in [10] was more than 100 µM throughout.
Turning to `O=C(CCc1cccc(O)c1)NCCc1cccc(O)c1`, the TGI in [1], in experiment [2], in experiment [3], in experiment [4], in experiment [5] and in [6] was more than 100 µM each time. Besides, the TGI in experiment [7], in [8], in [9] and in experiment [10] was more than 100 µM in each case.
For the compound `Brc1ccc2c(-c3nc(-c4c[nH]c5ccccc45)cs3)c[nH]c2c1`, the TGI in [1] was 81.1 µM; in experiment [2], more than 96.8 µM; in experiment [3], more than 100 µM; in experiment [4], more than 47.3 µM; in [5], more than 73 µM; in experiment [6], more than 100 µM. The TGI in [7], in [8], in [9] and in [10] was more than 100 µM throughout.
For `O=S(=O)(c1ccccc1)n1c(C(O)c2ccncc2)cc2ccccc21` (stereo not drawn), the TGI in [1] was more than 100 µM; in experiment [2], more than 100 µM; in experiment [3], more than 100 µM; in experiment [4] it was more than 100 µM; in [5], more than 100 µM; in experiment [6], 40.5 µM. The results for the TGI in experiment [7], in [9] and in experiment [10] were more than 100 µM, more than 100 µM and 44.7 µM, respectively.
Take `C[C@]12CC[C@H]3[C@@H](CCC4=CC(=O)C=C[C@@]43O)[C@@H]1CCC2=O`: the TGI in [1], in experiment [2], in experiment [3], in [4], in experiment [5] and in experiment [6] was more than 100 µM each time. In addition, the TGI in [9] and in experiment [10] was more than 100 µM throughout.
As to `CCCCC1(N=[N+]=[N-])C(=O)c2cccc3c2N(CCC3)C1=O` (stereo not drawn), the TGI in [1], in experiment [2], in experiment [3], in [4], in [5] and in [6] was more than 100 µM each time. For the same compound, the TGI in experiment [7], in [8] and in [9] was more than 100 µM each time.
`COC12C=C/C(=C(/C(=O)OCc3ccncn3)C(=O)CCCCCCCCC3(OC)C=C/C(=C(/C(=O)OCc4ccncn4)C(=O)CCCCCCCC1)O3)O2`: the GI50 in experiment [2] was 0.225 µM; in experiment [3], 0.349 µM; in [4] it was 0.227 µM; in experiment [5] it was 0.211 µM; in experiment [6] it was 0.314 µM; in experiment [7], 0.317 µM. Besides, the GI50 is 0.314 µM in [8] and 0.335 µM in experiment [9]. In addition, the TGI was determined as 0.78 µM in [2]; 2.21 µM in experiment [3]; 0.499 µM in experiment [4]; 0.503 µM in [5]; 11 µM in [6]; 2.16 µM in experiment [7]. Further, the figures for the TGI in experiment [8] and in experiment [9] were 1.92 µM and 1.54 µM, respectively.
For `Cc1cc(S(=O)(=O)Nc2nc3ccsc3c(=O)n2N)c(S)cc1Cl`, the TGI in experiment [1], in [2], in experiment [3], in experiment [4], in [5] and in experiment [6] was more than 100 µM in each case. The TGI in [7], in [8] and in [9] was more than 100 µM in each case.
Consider `O=C1COC(c2ccccc2O)=NN1CCCN1CCCC1`, for which the TGI in [1], in [2], in [3], in experiment [4], in [6] and in [7] was more than 100 µM throughout. Moreover, the TGI in experiment [8], in experiment [9] and in experiment [10] was more than 100 µM each time.
For `CCOC(=O)C1=CN=C2C(=O)N(c3ccccc3)N(C)C2(C)C1=N` (stereo not drawn), the TGI in experiment [1], in experiment [2], in experiment [3], in experiment [4], in experiment [5] and in [6] was more than 100 µM in each case. Also, the TGI in experiment [7], in experiment [9] and in [10] was more than 100 µM throughout.
For the compound `Cc1oc2nc1C(=O)NCc1nc(cs1)C(=O)N[C@H](C(C)C)c1nc(cs1)C(=O)N[C@H]2C`, the TGI in experiment [1], in experiment [2], in experiment [3], in experiment [4], in experiment [6] and in experiment [7] was more than 100 µM throughout. The TGI in experiment [8], in [9] and in [10] was more than 100 µM in each case.
For the compound `Oc1nc(N/N=C/c2c[nH]c3ccccc23)[nH]c1/C=C1\C=Nc2ccccc21`, the TGI in [1] is 37 µM; in [2], 60.3 µM; in experiment [3] it was more than 100 µM; in experiment [4], 44.8 µM; in experiment [5], 31.1 µM; in experiment [6], 29.5 µM. In addition, the values for the TGI in experiment [7], in experiment [8] and in experiment [9] were 86.1 µM, 43.1 µM and 32.3 µM, respectively.
In the case of `COC(=O)c1c(OC(C)=O)ccc2c1c1c(OC(C)=O)c3ccccc3c(OC(C)=O)c1n2Cc1cc(OC)cc(OC)c1`, the TGI in experiment [1] was more than 100 µM; in experiment [2], 82.1 µM; in [3], more than 100 µM; in experiment [4] it was 8.13 µM; in experiment [6] it was more than 100 µM; in [7], more than 100 µM. The TGI in experiment [8], in experiment [9] and in experiment [10] was more than 100 µM in each case.

Values taken from PubChem BioAssay (NCI).
